# According to patent US20030100024A1, “Method and apparatus for high throughput cell-based assays for screening and diagnostics” (priority 2000, published 2003):
# System: PC12 cells
# Assay: neurite outgrowth from PC12 cells measured by laser scanning line amplitudes
# Type: cell-based
# Conditions: NGF added, after six days, FIG. 5
# Description: The method of the invention was applied to the measurement of neurite outgrowth from PC12 cells. The neurites are much smaller than the cells and the laser beam, being only one micron in diameter in some cases. […] The extent of differentiation can be measured by considering the characteristic gaussian fit, multi-peaks ratio, sample width and number of inflections of the line amplitudes of the two populations. Any combination of these measurements from the line amplitudes may be used as a quantitative measure of differentiation.
# If the line-to-line spacing of the scan is sufficiently small it is also possible to produce a representation of each cell in 3D (FIG. 6). This provides confirmation of the ability of the method to characterise differentiation.
substance,measurement,value
nerve growth factor [NGF],differentiation (neurite outgrowth) of the cell population,the majority differentiated with neurite outgrowths
